Source: patent US5610320A, “Sulfonamide phenyl substituted compounds” (Eisai Co., Ltd., priority 1990, dated 1997)
In brackets after ≈: the same amount, converted by molar mass.

system: KB cells (human nasopharyngeal cells); test: In vitro antineoplastic test on KB cells (MTT, 3 days); assay type: cell-based; conditions: 72 h, KB cells in vitro, 37° C. for three days, MTT, read-out: IC50
Procedure: In vitro antineoplastic test on KB cells (human nasopharyngeal cells):
1.25×10^3 (0.1 ml) of KB cells suspended in a RPMI 1640 medium (a product of Nissui Seiyaku Co., Ltd.) containing 20% of bovine fetus serum, penicillin (100 units/ml), streptomycin (100 μg/ml), mercaptoethanol (5×10^-5 M) and sodium pyruvate (1 mM) were placed in each hole of a 96-hole flat-bottom microplate and cultured in an incubator containing 5% of carbon dioxide at 37° C. for one day.
This concentration was the maximum one, which was subjected to two-fold serial dilution with 0.1% bovine fetus serum RPMI 1640 culture liquid containing 0.5% of dimethyl sulfoxide. It was added to the KB cells in each hole of the above-described culture plate in an amount of 0.1 ml and cultured in an incubator containing 5% of carbon dioxide at 37° C. for three days.
After the completion of the culture, 0.05 ml of MTT [3-(4,5-dimethylthiazol-2-yl)-2,5-diphenyltetrazolium bromide] solution (3.3 mg/ml) was added to each hole and the culture was conducted for an additional 1 h. The supernatant liquid was removed from each hole by suction and a formazan thus formed was dissolved in 0.1 ml of dimethyl sulfoxide. The absorbance at 540 nm was determined with a microplate reader to use as an index of a viable count. A percentage inhibition was calculated according to the following formula and the concentration of the test compound for 50% inhibition (IC50) was determined.
Percentage inhibition (%)=(C-T)/C×100
T: absorbance of the hole containing the test compound
C: absorbance of the hole containing no test compound

| SMILES | IC50 |
| --- | --- |
| COc1ccc(S(=O)(=O)Nc2ccccc2Nc2ccccc2)cc1 [Example 58, N-(2-Anilinophenyl)-4-methoxybenzenesulfonamide] | 1.2 µg/mL (≈ 3.39 µM) |
| COc1ccc(S(=O)(=O)Nc2cccnc2Nc2ccc(OP(=O)(O)O)cc2)cc1 [Example 64, 4-[[3-(4-Methoxybenzenesulfonamido)-2-pyridyl]amino]phenyl dihydrogenphosphate] | 0.55 µg/mL (≈ 1.22 µM) |
| CCNC(=O)Nc1ccccc1NS(=O)(=O)c1ccc(OC)cc1 [Example 104, N-[2-[(Ethylaminocarbonyl)amino]phenyl]-4-methoxybenzenesulfonamide] | 0.099 µg/mL (≈ 0.283 µM) |
| COc1ccc(S(=O)(=O)Nc2ccccc2Nc2ccc(O)cc2)cc1 [Example 67, N-[2-[(4-Hydroxyphenyl)amino]phenyl]-4-methoxybenzenesulfonamide] | 1.4 µg/mL (≈ 3.78 µM) |
| COc1ccc(S(=O)(=O)Nc2ccccc2Nc2ncccn2)cc1 [Example 57, 4-Methoxy-N-[2-[(2-pyrimidyl)amino]phenyl]benzenesulfonamide] | 0.17 µg/mL (≈ 0.477 µM) |
| COc1ccc(S(=O)(=O)Nc2cccnc2Nc2ccc(Oc3ccccc3)cc2)cc1 [Example 40, 4-Methoxy-N-[2-[(4-phenoxyphenyl)amino]-3-pyridyl]benzenesulfonamide] | 2.1 µg/mL (≈ 4.69 µM) |
| CCOc1ccc(Nc2ncccc2NS(=O)(=O)c2ccc(OC)cc2)cc1 [Example 35, N-[2-[(4-Ethoxyphenyl)amino]-3-pyridyl]-4-methoxybenzenesulfonamide] | 0.45 µg/mL (≈ 1.13 µM) |
| COc1ccc(S(=O)(=O)Nc2ccc(F)cc2NC(=O)c2ccccc2)cc1 [Example 98, N-[5-fluoro-2-(4-methoxybenzenesulfonamido)phenyl]benzamide] | 0.079 µg/mL (≈ 0.197 µM) |
| CCOC(=O)c1ccc(Nc2ncccc2NS(=O)(=O)c2ccc(OC)cc2)cc1 [Example 37, Ethyl 4-[[3-(4-methoxybenzenesulfonamido)-2-pyridyl]amino]benzoate] | 1.3 µg/mL (≈ 3.04 µM) |
| COc1ccc(S(=O)(=O)Nc2cccnc2Nc2ccccc2C)cc1 [Example 18, 4-Methoxy-N-[2-[2(2-methylphenyl)amino]-3-pyridyl]benzenesulfonamide] | 0.73 µg/mL (≈ 1.98 µM) |
| COc1ccc(S(=O)(=O)Nc2cccnc2Nc2ccc(OC(=O)CN)cc2)cc1.Cl.Cl [Example 61, N-[2-[[4-(Aminoacetyloxy)phenyl]amino]-3-pyridyl]-4-methoxybenzenesulfonamide dihydrochloride] | 0.83 µg/mL |
| COc1ccc(S(=O)(=O)Nc2cccc(C)c2NC(=O)c2ccncc2)cc1 [Example 91, N-[2-(4-Methoxybenzenesulfonamido)-6-methylphenyl]isonicotinamide] | 0.079 µg/mL (≈ 0.199 µM) |
| COc1ccc(S(=O)(=O)Nc2ccccc2Nc2ccccn2)cc1 [Example 76, 4-Methoxy-N-[2-[(2-pyridyl)amino]phenyl]benzenesulfonamide] | 0.13 µg/mL (≈ 0.366 µM) |
| COc1ccc(S(=O)(=O)Nc2ccccc2NC(=O)c2ccncc2)cc1 [Example 88, N-[2-(4-Methoxybenzenesulfonamido)phenyl]isonicotinamide] | 0.01 µg/mL (≈ 0.0261 µM) |
| COc1ccc(S(=O)(=O)Nc2cccnc2Nc2ccc(O)c(C)c2)cc1 [Example 36, N-[2-[(4-hydroxy-3-methylphenyl)amino]-3-pyridyl]-4-methoxybenzenesulfonamide] | 0.72 µg/mL (≈ 1.87 µM) |
| COc1ccc(S(=O)(=O)Nc2cccnc2Nc2ccc(Cl)cc2)cc1 [Example 42, N-[2-[(4-Chlorophenyl)amino]-3-pyridyl]-4-methoxybenzenesulfonamide] | 0.59 µg/mL (≈ 1.51 µM) |
| COc1ccc(S(=O)(=O)Nc2cccnc2Nc2cccc(O)c2)cc1 [Example 34, N-[2-[(3-Hydroxyphenyl)amino]-3-pyridyl]-4-methoxybenzenesulfonamide] | 0.11 µg/mL (≈ 0.296 µM) |
| COc1ccc(S(=O)(=O)Nc2cccnc2Nc2ccc(F)cc2)cc1 [Example 11, N-[2-[(4-Fluorophenyl)amino]-3-pyridyl]-4-methoxybenzenesulfonamide] | 0.33 µg/mL (≈ 0.884 µM) |
| COc1ccc(S(=O)(=O)Nc2ccc(OC)nc2Nc2ccccc2)cc1 [Example 54, N-(2-Anilino-6-methoxy-3-pyridyl)-4-methoxybenzene sulfonamide] | 0.54 µg/mL (≈ 1.4 µM) |
| CCOc1ccc(S(=O)(=O)Nc2cccnc2Nc2ccccc2)cc1 [Example 27, N-(2-Anilino-3-pyridyl)-4-ethoxybenzenesulfonamide] | 1.4 µg/mL (≈ 3.79 µM) |
| COc1ccc(S(=O)(=O)Nc2cccnc2Nc2cccc(OC)c2)cc1 [Example 13, 4-Methoxy-N-[2-[(3-methoxyphenyl)amino]-3-pyridyl]benzenesulfonamide] | 2.6 µg/mL (≈ 6.75 µM) |
| COc1ccc(S(=O)(=O)Nc2ccccc2NC(=O)c2ccccc2C)cc1 [Example 95, N-[2-(4-Methoxybenzenesulfonamido)phenyl]-2-methylbenzamide] | 0.045 µg/mL (≈ 0.114 µM) |

| SMILES | IC50 |
| --- | --- |
| COc1ccc(S(=O)(=O)Nc2cccnc2Nc2ccc(OC(=O)c3ccccc3N)cc2)cc1 [Example 63, N-[2-[[4-(2-Aminobenzoyloxy)phenyl]amino]-3-pyridyl]-4-methoxybenzenesulfonamide] | 0.2 µg/mL (≈ 0.408 µM) |
| COc1ccc(S(=O)(=O)Nc2ccccc2NC(=O)c2cnccc2C)cc1 [Example 71, N-[2-(4-Methoxybenzenesulfonamido)phenyl]-4-methylnicotinamide] | 0.11 µg/mL (≈ 0.277 µM) |
| COc1ccc(S(=O)(=O)Nc2cccnc2Nc2ccccc2OC)cc1 [Example 16, 4-Methoxy-N-[2-[(2-methoxyphenyl)amino]-3-pyridyl]benzenesulfonamide] | 1.5 µg/mL (≈ 3.89 µM) |
| COCOc1ccc(Nc2ncccc2NS(=O)(=O)c2ccc(OC)cc2)cc1 [Example 5, 4-Methoxy-N-[2-[(4-methoxymethyloxyphenyl)amino]-3-pyridyl-]benzenesulfonamide] | 0.73 µg/mL (≈ 1.76 µM) |
| Nc1ccc(S(=O)(=O)Nc2ccccc2NC(=O)c2ccc(F)cc2)cc1 [Example 106, N-[2-(4-Aminobenzenesulfonamido)phenyl]-4-fluorobenzamide] | 0.3 µg/mL (≈ 0.778 µM) |
| COc1ccc(S(=O)(=O)Nc2cccnc2Nc2ccccc2O)cc1 [Example 43, N-[2-[(2-Hydroxyphenyl)amino]-3-pyridyl]-4-methoxybenzenesulfonamide] | 0.26 µg/mL (≈ 0.7 µM) |
| COc1ccc(S(=O)(=O)Nc2ccccc2NC(=O)c2ccco2)cc1 [Example 85, N-[2-(4-Methoxybenzenesulfonamido)phenyl]-2-furancarboxamide] | 0.01 µg/mL (≈ 0.0269 µM) |
| COc1ccc(S(=O)(=O)Nc2cccnc2Nc2ccc(OC(=O)C(C)(C)C)cc2)cc1 [Example 68, 4-Methoxy-N-[2-[(4-pivaloyloxyphenyl)amino]-3-pyridyl]benzenesulfonamide] | 0.17 µg/mL (≈ 0.373 µM) |
| Nc1ccc(S(=O)(=O)Nc2cccnc2Nc2ccccc2)cc1 [Example 21, 4-Amino-N-(2-anilino-3-pyridyl)benzenesulfonamide] | 1.1 µg/mL (≈ 3.23 µM) |
| COc1ccc(S(=O)(=O)Nc2c(Nc3ccccc3)ncnc2OC)cc1 [Example 47, N-(4-Anilino-6-methoxy-5-pyrimidyl)-4-methoxybenzenesulfonamide] | 2.6 µg/mL (≈ 6.73 µM) |
| COc1ccc(Nc2ncccc2N(C)S(=O)(=O)c2ccc(OC)cc2)cc1 [Example 62, 4-Methoxy-N-[2-[(4-methoxyphenyl)amino]-3-pyridyl]-N-methylbenzenesulfonamide] | 0.53 µg/mL (≈ 1.33 µM) |
| COc1ccc(S(=O)(=O)Nc2cccnc2Nc2cccc(OP(=O)(O)O)c2)cc1 [Example 65, 3-[[3-(4-Methoxybenzenesulfonamido)-2-pyridyl]amino]phenyl dihydrogenphosphate] | 0.2 µg/mL (≈ 0.443 µM) |
| COc1ccc(S(=O)(=O)Nc2ccccc2NC(=O)c2ccc(F)cc2Cl)cc1 [Example 94, 2-Chloro-4-fluoro-N-[2-(4-methoxybenzenesulfonamido)phenyl]benzamide] | 0.064 µg/mL (≈ 0.147 µM) |
| COc1ccc(S(=O)(=O)Nc2cccnc2Nc2ccc(OC(=O)c3ccccc3)cc2)cc1 [Example 59, N-[2-[(4-Benzoyloxyphenyl)amino]-3-pyridyl]-4-methoxybenzenesulfonamide] | 0.18 µg/mL (≈ 0.379 µM) |
| COc1ccc(S(=O)(=O)Nc2ccccc2NC(C)=O)cc1 [Example 101, N-[2-(4-Methoxybenzenesulfonamido)phenyl]acetamide] | 0.1 µg/mL (≈ 0.312 µM) |
| COc1ccc(S(=O)(=O)Nc2cccnc2Nc2cccc(F)c2)cc1 [Example 10, N-[2-[(3-Fluorophenyl)amino]-3-pyridyl]-4-methoxybenzenesulfonamide] | 0.21 µg/mL (≈ 0.562 µM) |
| COc1ccc(S(=O)(=O)Nc2cccnc2Nc2cccc(C)c2)cc1 [Example 17, 4-Methoxy-N-[2-[(3-methylphenyl)amino]-3-pyridyl]benzenesulfonamide] | 0.94 µg/mL (≈ 2.54 µM) |
| COc1ccc(S(=O)(=O)Nc2cccnc2Nc2ccccc2F)cc1 [Example 9, N-[2-[(2-Fluorophenyl)amino]-3-pyridyl]-4-methoxybenzenesulfonamide] | 0.34 µg/mL (≈ 0.911 µM) |
| COc1ccc(S(=O)(=O)Nc2ccccc2NC(=S)c2ccc(F)cc2)cc1 [Example 97, 4-Fluoro-N-[2-(4-methoxybenzenesulfonamido)phenyl]benzothioamide] | 0.15 µg/mL (≈ 0.36 µM) |
| COc1ccc(S(=O)(=O)Nc2ccccc2NC(=O)c2ccncc2C)cc1 [Example 72, N-[2-(4-Methoxybenzenesulfonamido)phenyl]-3-methylisonicotinamide] | 0.012 µg/mL (≈ 0.0302 µM) |
| COc1ccc(S(=O)(=O)Nc2ccccc2NC(=O)c2ccc(F)cc2)cc1 [Example 82, 4-Fluoro-N-[2-(4-methoxybenzenesulfonamido)phenyl]benzamide] | 0.026 µg/mL (≈ 0.0649 µM) |
| COc1ccc(S(=O)(=O)Nc2cccnc2Nc2ccc(C)cc2)cc1 [Example 8, 4-Methoxy-N-[2-[(4-methylphenyl)amino]-3-pyridyl]benzenesulfonamide] | 0.89 µg/mL (≈ 2.41 µM) |

same assay, conditions: KB, 72 h

| SMILES | IC50 |
| --- | --- |
| COc1ccc(S(=O)(=O)Nc2cccnc2Nc2ccc(OC(=O)N(C)C)cc2)cc1 [Example 52, N-[2-[(4-Dimethylcarbamoyloxyphenyl)amino]-3-pyridyl]-4-methoxybenzenesulfonamide] | 0.54 µg/mL (≈ 1.22 µM) |
